# Assay results from article PMC5762315, “Inhibition of polo-like kinase 4 (PLK4): a new therapeutic option for rhabdoid tumors and pediatric medulloblastoma” (Oncotarget, 2017).
# Where “and” joins values, the source holds several entries; their conditions need not be identical. Equal entries are not always repeated.
# Experiments:
# Experiment in all cases: biochemical
# Assay type in all cases: biochemical
# various kinases [1] = target: various kinases (Homo sapiens, UniProt O14920); details: IKBKB (IKK beta)
# various kinases [2] = target: various kinases (Homo sapiens, UniProt O43781); details: DYRK3
# various kinases [3] = target: various kinases (Homo sapiens, UniProt P05129); details: kinase PRKCG (PKC gamma); ZLYTE
# various kinases [4] = target: various kinases (Homo sapiens, UniProt P07949); details: kinase RET; ZLYTE
# various kinases [5] = target: various kinases (Homo sapiens, UniProt P07949, S891A); details: kinase RET S891A; ZLYTE
# various kinases [6] = target: various kinases (Homo sapiens, UniProt P10721, V560G); details: KIT V560G
# various kinases [7] = target: various kinases (Homo sapiens, UniProt P15056, V600E); details: BRAF V599E
# various kinases [8] = target: various kinases (Homo sapiens, UniProt P16234, D842V); details: PDGFRA D842V
# various kinases [9] = target: various kinases (Homo sapiens, UniProt P41279); details: MAP3K8 (COT)
# various kinases [10] = target: various kinases (Homo sapiens, UniProt P42679); details: MATK (HYL)
# various kinases [11] = target: various kinases (Homo sapiens, UniProt P51955); details: NEK2
# various kinases [12] = target: various kinases (Homo sapiens, UniProt Q04912); details: MST1R (RON)
# various kinases [13] = target: various kinases (Homo sapiens, UniProt Q12851); details: MAP4K2 (GCK)
# various kinases [14] = target: various kinases (Homo sapiens, UniProt Q13131)
# various kinases [15] = target: various kinases (Homo sapiens, UniProt Q13554); details: CAMK2B (CaMKII beta)
# various kinases [16] = target: various kinases (Homo sapiens, UniProt Q56UN5); details: MAP3K19 (YSK4)
# various kinases [17] = target: various kinases (Homo sapiens, UniProt Q8N4C8); details: MINK1
# various kinases [18] = target: various kinases (Homo sapiens, UniProt Q8NE63); details: HIPK4
# various kinases [19] = target: various kinases (Homo sapiens, UniProt Q9UBS0); details: kinase RPS6KB2 (p70S6Kb); ZLYTE
# various kinases [20] = target: various kinases (Homo sapiens, UniProt Q9UK32); details: kinase RPS6KA6 (RSK4); ZLYTE
# various kinases [21] = target: T1, various kinases (Homo sapiens, UniProt Q9UL54); details: kinase TAOK2 (TAO1); ZLYTE
# T1 sequence (Q9UL54 1-1235): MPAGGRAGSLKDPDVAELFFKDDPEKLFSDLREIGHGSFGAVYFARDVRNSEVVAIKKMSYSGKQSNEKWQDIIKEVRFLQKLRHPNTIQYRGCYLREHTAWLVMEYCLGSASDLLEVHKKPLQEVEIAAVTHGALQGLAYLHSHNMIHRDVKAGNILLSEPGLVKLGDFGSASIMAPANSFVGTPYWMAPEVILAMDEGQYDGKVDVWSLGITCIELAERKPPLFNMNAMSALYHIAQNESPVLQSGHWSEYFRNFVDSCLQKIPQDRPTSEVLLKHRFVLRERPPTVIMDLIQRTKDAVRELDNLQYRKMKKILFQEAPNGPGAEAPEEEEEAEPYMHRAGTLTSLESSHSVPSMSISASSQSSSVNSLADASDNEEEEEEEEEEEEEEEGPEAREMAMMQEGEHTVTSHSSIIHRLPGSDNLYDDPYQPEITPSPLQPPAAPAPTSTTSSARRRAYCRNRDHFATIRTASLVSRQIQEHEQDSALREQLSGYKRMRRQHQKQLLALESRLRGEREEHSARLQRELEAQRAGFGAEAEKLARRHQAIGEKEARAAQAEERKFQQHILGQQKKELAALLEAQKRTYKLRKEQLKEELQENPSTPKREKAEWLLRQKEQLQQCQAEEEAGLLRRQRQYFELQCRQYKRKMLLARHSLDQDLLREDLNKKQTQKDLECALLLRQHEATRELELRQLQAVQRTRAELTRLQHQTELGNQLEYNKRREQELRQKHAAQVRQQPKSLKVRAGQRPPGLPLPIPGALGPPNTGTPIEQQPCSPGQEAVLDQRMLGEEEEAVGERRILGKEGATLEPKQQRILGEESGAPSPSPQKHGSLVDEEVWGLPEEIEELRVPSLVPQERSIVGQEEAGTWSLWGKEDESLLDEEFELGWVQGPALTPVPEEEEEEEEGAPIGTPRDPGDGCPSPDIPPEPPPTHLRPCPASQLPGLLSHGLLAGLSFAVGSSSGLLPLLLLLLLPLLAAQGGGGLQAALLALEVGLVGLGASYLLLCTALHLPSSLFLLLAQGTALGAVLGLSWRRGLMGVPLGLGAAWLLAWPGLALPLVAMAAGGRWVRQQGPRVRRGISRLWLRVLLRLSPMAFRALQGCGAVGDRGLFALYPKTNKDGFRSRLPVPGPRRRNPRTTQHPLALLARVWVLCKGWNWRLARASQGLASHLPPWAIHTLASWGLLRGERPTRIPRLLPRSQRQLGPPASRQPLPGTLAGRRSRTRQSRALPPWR
# Sequence of various kinases (Homo sapiens, UniProt P07949) (P07949 29-1114): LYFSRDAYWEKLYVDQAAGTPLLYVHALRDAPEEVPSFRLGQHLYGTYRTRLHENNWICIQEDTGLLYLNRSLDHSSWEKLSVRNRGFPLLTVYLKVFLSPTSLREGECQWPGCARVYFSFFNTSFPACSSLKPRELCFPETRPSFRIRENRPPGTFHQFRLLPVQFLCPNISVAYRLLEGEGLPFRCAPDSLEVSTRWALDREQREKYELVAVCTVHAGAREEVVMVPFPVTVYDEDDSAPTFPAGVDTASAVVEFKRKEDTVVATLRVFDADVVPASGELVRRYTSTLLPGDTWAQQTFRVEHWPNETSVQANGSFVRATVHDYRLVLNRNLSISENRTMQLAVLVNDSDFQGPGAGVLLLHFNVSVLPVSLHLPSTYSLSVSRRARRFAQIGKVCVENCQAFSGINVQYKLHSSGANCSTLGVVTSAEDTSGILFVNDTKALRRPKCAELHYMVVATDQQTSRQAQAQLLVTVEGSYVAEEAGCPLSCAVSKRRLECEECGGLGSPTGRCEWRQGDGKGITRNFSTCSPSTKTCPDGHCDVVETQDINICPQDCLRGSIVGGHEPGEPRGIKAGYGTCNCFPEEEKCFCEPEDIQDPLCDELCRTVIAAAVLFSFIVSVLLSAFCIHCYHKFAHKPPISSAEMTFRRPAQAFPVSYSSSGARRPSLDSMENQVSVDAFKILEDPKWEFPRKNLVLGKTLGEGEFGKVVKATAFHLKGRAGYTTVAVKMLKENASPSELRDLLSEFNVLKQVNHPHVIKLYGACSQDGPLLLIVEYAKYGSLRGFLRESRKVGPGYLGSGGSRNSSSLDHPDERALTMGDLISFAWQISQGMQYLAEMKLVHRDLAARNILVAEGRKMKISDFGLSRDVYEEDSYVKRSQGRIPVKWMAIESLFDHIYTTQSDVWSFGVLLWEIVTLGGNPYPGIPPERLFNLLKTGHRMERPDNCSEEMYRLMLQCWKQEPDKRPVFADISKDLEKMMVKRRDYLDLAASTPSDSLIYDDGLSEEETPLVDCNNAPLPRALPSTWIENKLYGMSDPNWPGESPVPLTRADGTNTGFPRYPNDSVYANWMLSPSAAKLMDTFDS
# Sequence of various kinases (Homo sapiens, UniProt P07949, S891A) (P07949 29-1114 S891A): as the sequence (P07949 29-1114) above, with S863A counted along it
# Sequence of various kinases (Homo sapiens, UniProt Q9UBS0) (Q9UBS0 whole entry): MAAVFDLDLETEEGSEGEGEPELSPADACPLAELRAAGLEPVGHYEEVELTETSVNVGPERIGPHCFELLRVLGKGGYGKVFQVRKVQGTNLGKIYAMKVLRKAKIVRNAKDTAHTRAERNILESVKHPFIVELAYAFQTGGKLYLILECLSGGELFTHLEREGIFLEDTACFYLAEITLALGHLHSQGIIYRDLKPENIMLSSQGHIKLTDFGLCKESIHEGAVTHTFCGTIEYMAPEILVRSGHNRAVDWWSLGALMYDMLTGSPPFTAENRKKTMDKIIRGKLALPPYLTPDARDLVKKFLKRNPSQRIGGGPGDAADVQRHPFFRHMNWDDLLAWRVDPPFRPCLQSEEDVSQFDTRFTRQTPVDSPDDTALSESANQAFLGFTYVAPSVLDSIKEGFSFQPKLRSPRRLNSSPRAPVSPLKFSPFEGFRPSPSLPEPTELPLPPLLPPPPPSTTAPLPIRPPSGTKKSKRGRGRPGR
# Sequence of various kinases (Homo sapiens, UniProt Q13131) (Q13131 whole entry): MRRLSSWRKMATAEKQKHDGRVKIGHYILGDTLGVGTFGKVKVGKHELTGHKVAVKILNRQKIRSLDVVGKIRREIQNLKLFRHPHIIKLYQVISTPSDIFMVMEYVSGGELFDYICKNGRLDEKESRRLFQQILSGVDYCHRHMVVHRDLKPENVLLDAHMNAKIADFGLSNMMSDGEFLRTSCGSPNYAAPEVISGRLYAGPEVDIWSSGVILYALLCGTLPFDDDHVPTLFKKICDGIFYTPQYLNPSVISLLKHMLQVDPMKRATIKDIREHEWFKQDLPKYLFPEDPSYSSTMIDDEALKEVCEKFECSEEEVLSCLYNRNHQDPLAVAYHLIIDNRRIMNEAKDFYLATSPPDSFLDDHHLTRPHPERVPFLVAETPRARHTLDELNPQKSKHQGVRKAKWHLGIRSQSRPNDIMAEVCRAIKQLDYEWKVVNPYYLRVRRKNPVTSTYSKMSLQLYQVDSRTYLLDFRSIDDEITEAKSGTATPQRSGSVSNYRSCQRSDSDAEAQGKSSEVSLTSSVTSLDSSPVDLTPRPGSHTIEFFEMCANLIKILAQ
# Sequence of various kinases (Homo sapiens, UniProt Q9UK32) (Q9UK32 whole entry): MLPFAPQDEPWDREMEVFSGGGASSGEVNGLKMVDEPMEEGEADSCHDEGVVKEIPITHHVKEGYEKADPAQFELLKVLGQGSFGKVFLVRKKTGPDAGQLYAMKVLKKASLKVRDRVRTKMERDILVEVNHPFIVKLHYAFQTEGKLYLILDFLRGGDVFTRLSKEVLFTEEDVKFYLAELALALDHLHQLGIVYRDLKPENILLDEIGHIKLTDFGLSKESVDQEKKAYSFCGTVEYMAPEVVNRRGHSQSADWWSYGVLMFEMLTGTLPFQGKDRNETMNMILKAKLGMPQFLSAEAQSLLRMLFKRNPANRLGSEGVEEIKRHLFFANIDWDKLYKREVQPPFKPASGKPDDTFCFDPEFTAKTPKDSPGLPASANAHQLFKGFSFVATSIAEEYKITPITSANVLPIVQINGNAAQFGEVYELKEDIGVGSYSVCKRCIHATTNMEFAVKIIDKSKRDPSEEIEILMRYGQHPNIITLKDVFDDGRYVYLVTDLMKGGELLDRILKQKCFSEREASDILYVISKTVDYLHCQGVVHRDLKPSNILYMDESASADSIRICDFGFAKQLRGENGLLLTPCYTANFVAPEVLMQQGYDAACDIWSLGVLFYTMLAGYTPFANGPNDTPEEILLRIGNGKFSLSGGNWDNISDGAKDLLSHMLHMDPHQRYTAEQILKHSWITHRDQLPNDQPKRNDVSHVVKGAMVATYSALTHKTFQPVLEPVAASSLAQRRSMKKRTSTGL
# Sequence of various kinases (Homo sapiens, UniProt Q04912) (Q04912 25-1400): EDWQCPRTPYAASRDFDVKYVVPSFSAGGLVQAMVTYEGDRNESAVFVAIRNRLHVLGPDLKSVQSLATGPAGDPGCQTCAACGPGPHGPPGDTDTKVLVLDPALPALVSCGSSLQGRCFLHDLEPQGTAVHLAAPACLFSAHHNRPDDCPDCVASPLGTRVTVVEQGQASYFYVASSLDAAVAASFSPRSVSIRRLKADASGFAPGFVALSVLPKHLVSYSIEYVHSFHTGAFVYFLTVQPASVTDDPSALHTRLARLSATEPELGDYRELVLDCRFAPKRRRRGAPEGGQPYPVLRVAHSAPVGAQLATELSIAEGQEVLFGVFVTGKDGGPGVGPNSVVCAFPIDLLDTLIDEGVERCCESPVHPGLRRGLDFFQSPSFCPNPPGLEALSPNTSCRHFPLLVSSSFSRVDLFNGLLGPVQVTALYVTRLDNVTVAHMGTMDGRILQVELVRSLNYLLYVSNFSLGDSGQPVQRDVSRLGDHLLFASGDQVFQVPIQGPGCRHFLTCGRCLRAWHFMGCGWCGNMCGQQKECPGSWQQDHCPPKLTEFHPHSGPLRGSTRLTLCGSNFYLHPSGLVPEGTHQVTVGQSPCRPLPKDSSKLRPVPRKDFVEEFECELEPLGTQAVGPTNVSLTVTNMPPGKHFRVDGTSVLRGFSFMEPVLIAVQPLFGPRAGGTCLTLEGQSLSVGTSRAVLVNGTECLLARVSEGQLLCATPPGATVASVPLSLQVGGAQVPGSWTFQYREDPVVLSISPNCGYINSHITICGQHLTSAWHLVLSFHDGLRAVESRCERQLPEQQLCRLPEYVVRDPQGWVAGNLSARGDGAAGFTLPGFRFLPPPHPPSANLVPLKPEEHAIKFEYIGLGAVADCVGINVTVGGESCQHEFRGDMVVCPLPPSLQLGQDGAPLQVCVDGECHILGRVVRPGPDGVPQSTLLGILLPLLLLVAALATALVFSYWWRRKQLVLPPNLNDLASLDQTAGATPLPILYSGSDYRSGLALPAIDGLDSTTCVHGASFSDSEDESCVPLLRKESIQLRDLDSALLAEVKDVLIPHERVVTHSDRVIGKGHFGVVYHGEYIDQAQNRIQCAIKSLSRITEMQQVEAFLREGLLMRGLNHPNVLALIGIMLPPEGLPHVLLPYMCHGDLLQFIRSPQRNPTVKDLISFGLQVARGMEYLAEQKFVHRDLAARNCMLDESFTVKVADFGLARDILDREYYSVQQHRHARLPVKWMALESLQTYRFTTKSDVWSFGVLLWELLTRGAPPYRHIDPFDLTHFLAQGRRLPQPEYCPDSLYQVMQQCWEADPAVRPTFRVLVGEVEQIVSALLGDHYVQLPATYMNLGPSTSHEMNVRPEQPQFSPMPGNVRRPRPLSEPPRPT
smiles,measurement,setting,value
COc1ccc2c(c1)[C@]1(C[C@H]1c1ccc3c(/C=C/c4ccc(CN5C[C@@H](C)O[C@@H](C)C5)cc4)n[nH]c3c1)C(=O)N2 [CFI-400945],% Inhibition,various kinases [1],5% and 4%
same,% Inhibition,various kinases [2],9% and 5%
same,% Inhibition Average,various kinases [3],-5%
same,% Inhibition Duplicate #1,various kinases [3],-13%
same,% Inhibition Duplicate #2,various kinases [3],3%
same,% Inhibition Average,various kinases [4],16%
same,% Inhibition Duplicate #1,various kinases [4],14%
same,% Inhibition Duplicate #2,various kinases [4],18%
same,% Inhibition Average,various kinases [5],55%
same,% Inhibition Duplicate #1,various kinases [5],59%
same,% Inhibition Duplicate #2,various kinases [5],52%
same,% Inhibition,various kinases [6],11% and 7%
same,% Inhibition,various kinases [7],12%
same,% Inhibition,various kinases [8],4% and 10%
same,% Inhibition,various kinases [9],7%
same,% Inhibition,various kinases [10],6% and 4%
same,% Inhibition,various kinases [11],-1% and 1%
same,% Inhibition,various kinases [12],8% and 9%
same,% Inhibition,various kinases [13],43% and 39%
same,% Inhibition,various kinases [14]; AMPK (A1/B2/G2),25% and 20%
same,% Inhibition,various kinases [14]; AMPK (A1/B2/G3),13% and 21%
same,% Inhibition,various kinases [14]; AMPK A1/B1/G1,14% and 9%
same,% Inhibition,various kinases [15],13% and 14%
same,% Inhibition,various kinases [16],7% and 4%
same,% Inhibition,various kinases [17],12% and 18%
same,% Inhibition,various kinases [18],-1% and 2%
same,% Inhibition Average,various kinases [19],5%
same,% Inhibition Duplicate #1,various kinases [19],5%
same,% Inhibition Duplicate #2,various kinases [19],4%
same,% Inhibition Average,various kinases [20],4%
same,% Inhibition Duplicate #1,various kinases [20],6%
same,% Inhibition Duplicate #2,various kinases [20],3%
same,% Inhibition Average,various kinases [21],4%
same,% Inhibition Duplicate #1,various kinases [21],3%
same,% Inhibition Duplicate #2,various kinases [21],5%
